Source: patent publication US4195179A, “5-(Indol-3-ylmethylene)-1,3-dimethyl-2-methylamino-4-imidazolidinone” (Hoffmann-La Roche Inc., priority 1976, dated 1980)

Assays:
acute toxicity (LD50) = conditions: mouse, in vivo
[1] = system: tetrabenazine induced ptosis; test: antagonism of tetrabenazine induced ptosis; assay type: in vivo; conditions: Mus musculus, 1 h; oral, male mice; tetrabenazine methanesulfonate 100 mg/kg one hour after test compound; ptosis observed one hour later
Description: Groups of 10 mice each are administered tetrabenazine methanesulfonate at a dose of 100 mg/kg., one hour after oral administration of the test compound. One hour after tetrabenazine administration, each mouse is observed for the presence or absence of ptosis. An ED50 value for the antagonism of tetrabenazine induced ptosis is then determined.

Row | SMILES | LD50 (acute toxicity (LD50); ip) | LD50 (acute toxicity (LD50); po) | ED50 [1]
1 | C/N=C1/N(C)C(=O)/C(=C\c2c[nH]c3ccccc23)N1C [(E)-5-(indol-3-ylmethylene)-1,3-dimethyl-2-methylimino-4-imidazolidinone] | 670 mg/kg | 900 mg/kg | 5 mg/kg
2 | COc1ccc2c3c([nH]c2c1)C(C)=NCC3 [harmaline] | 120 mg/kg | 380 mg/kg | –
3 | C#CCN(C)Cc1ccccc1 [pargyline] | 390 mg/kg | 720 mg/kg | –
